We go through 28 molecules from patent publication US9765087B2, “Benzimidazole derivatives” (ENANTA PHARMACEUTICALS, INC., priority 2009, dated 2017).

A word on the EC50: it is the midpoint of the concentration-response curve.

The subject of this experiment is HCV 1a genotype replicon. Nature of the experiment: HCV replicon assay (qRT-PCR or luciferase), genotype 1a. In kind it is cell-based. The following applies: Hepatitis C virus. As for the experimental part:
HCV replicon cell lines (kindly provided by R. Bartenschlager) isolated from colonies as described by Lohman et. al. (Lohman et al. (1999) Science 285: 110-113, expressly incorporated by reference in its entirety) and used for all experiments. The HCV replicon has the nucleic acid sequence set forth in EMBL Accession No.: AJ242651, the coding sequence of which is from nucleotides 1801 to 8406.
These cell lines were maintained at 37° C., 5% CO2, 100% relative humidity in DMEM (Cat#11965-084, Invitrogen), with 10% fetal calf serum (“FCS”, Invitrogen), 1% non-essential amino acids (Invitrogen), 1% of Glutamax (Invitrogen), 1% of 100× penicillin/streptomycin (Cat#15140-122, Invitrogen) and Geneticin (Cat#10131-027, Invitrogen) at 0.75 mg/ml or 0.5 mg/ml for 11-7 and Huh-luc/neo-ET cells, respectively.
EC50 values of single agent compounds and combinations were determined by HCV RNA detection using quantitative RT-PCR, according to the manufacturer's instructions, with a TAQMAN® One-Step RT-PCR Master Mix Reagents Kit (Cat#AB 4309169, Applied Biosystems) on an ABI Model 7500 thermocycler. The TaqMan primers used for detecting and quantifying HCV RNA were obtained from Integrated DNA Technologies. HCV RNA was normalized to GAPDH RNA levels in drug-treated cells, which is detected and quantified using the Human GAPDH Endogenous Control Mix (Applied Biosystems, AB 4310884E). Total cellular RNA is purified from 96-well plates using the RNAqueous 96 kit (Ambion, Cat# AM1812). Chemical agent cytotoxicity is evaluated using an MTS assay according to the manufacturer's directions (Promega).
Since clinical drug resistance often develops in viral infections following single agent therapies, there is a need to assess the additive, antagonistic, or synergistic properties of combination therapies. We used the HCV replicon system to assess the potential use of the compound of the present invention or in combination therapies with Interferon alpha, cyclosporine analogs and inhibitors targeting other HCV proteins. The acute effects of a single or combinations of drugs are studied in the “Huh-luc/neo-ET” replicon with each chemical agent titrated in an X or Y direction in a 6 point two-fold dilution curve centered around the EC50 of each drug. Briefly, replicon cells are seeded at 7,000 cells per well in 90 ul DMEM (without phenol red, Invitrogen Cat.#31053-036) per well with 10% FCS, 1% non-essential amino acids, 1% of Glutamax and 1% of 100× penicillin/streptomycin and incubated overnight at 37° C., 5% CO2, 100% relative humidity. 16-20 h after seeding cells, test compounds previously solubilized and titrated in dimethyl sulfoxide (“DMSO”) from each X plate and Y plate are diluted 1:100 in DMEM (without phenol red, Invitrogen Cat.#31053-036) with 10% FCS, 1% non-essential amino acids, 1% of Glutamax and 1% of 100× penicillin/streptomycin and added directly to the 96-well plate containing cells and growth medium at a 1:10 dilution for a final dilution of compound and DMSO of 1:1000 ([…] final concentration). Drug treated cells are incubated at 37° C., 5% CO2, 100% relative humidity for 72 hours before performing a luciferase assay using 100 ul per well BriteLite Plus (Perkin Elmer) according to the manufacturer's instructions. Data analysis utilizes the method published by Prichard and Shipman (Antiviral Research, 1990. 14:181-205). Using this method, the combination data are analyzed for antagonistic, additive, or synergistic combination effects across the entire combination surface created by the diluted compounds in combination.
The compounds of the present invention can be effective against the HCV 1b genotype. It should also be understood that the compounds of the present invention can inhibit multiple genotypes of HCV. In one embodiment compound of the present invention are active against the 1a, 1b, 2a, 2b, 3a, 4a, and 5a genotypes. […] EC50 ranges against HCV 1b and 1a are as follows: A>10 nM; B1-10 nM; C<1 nM.
(In general: In antiviral work, replicon cells carry a viral genome segment that copies itself.)

Where [1] appears, read: Table 12, range class, read-out: 1a EC50 Range.
Where [2] appears, read: Table 12, numeric values, read-out: 1a EC50.

Structures are written as SMILES. Where two headings read alike, the source gives them in different places.

`COC(=O)N[C@H](C(=O)N1CC2(CC2)C[C@H]1c1nc2ccc(C#Cc3ccc(-c4cnc([C@@H]5CCCN5C(=O)[C@H](NC(=O)OC)c5ccsc5)[nH]4)cc3)cc2[nH]1)C(C)C` [Example 596]: under setting [1], the EC50 is less than 1 nM.
For the molecule `COC(=O)N[C@H](C(=O)N1CC2(CC2)C[C@H]1c1nc2ccc(C#Cc3ccc(-c4cnc([C@@H]5CCCN5C(=O)[C@H](NC(=O)OC)c5cccc(OC)c5)[nH]4)cc3)cc2[nH]1)C(C)C` [Example 597], the EC50 under setting [2] came out at 0.227 nM.
As to `COC(=O)N[C@H](C(=O)N1CC2(CC2)C[C@H]1c1nc2ccc(C#Cc3ccc(-c4cnc([C@@H]5CCCN5C(=O)[C@@H](NC(=O)OC)[C@@H](C)OC)[nH]4)cc3)cc2[nH]1)C(C)C` [Example 598], the EC50 under setting [1] is less than 1 nM.
On the same count and under the same terms, next, `COC(=O)N[C@H](C(=O)N1CC2(CC2)C[C@H]1c1ncc(-c2ccc(C#Cc3ccc4nc([C@@H]5CC6(CC6)CN5C(=O)[C@H](NC(=O)OC)C5CCCC5)[nH]c4c3)cc2)[nH]1)C(C)C` [Example 599]: 1 to 10 nM; `COC(=O)N[C@H](C(=O)N1CC2(CC2)C[C@H]1c1nc2ccc(C#Cc3ccc(-c4cnc([C@@H]5CCCN5C(=O)[C@H](NC(=O)OC)c5cccc(F)c5)[nH]4)cc3)cc2[nH]1)C(C)C` [Example 600]: less than 1 nM; `COC(=O)N[C@H](C(=O)N1CC2(CC2)C[C@H]1c1ncc(-c2ccc(C#Cc3ccc4nc([C@@H]5CC6(CC6)CN5C(=O)[C@H](NC(=O)OC)[C@H](C)c5ccccc5)[nH]c4c3)cc2)[nH]1)C(C)C` [Example 601]: greater than 10 nM.
For the molecule `COC(=O)N[C@H](C(=O)N1CC2(CC2)C[C@H]1c1ncc(-c2ccc(C#Cc3ccc4nc([C@@H]5CC6(CC6)CN5C(=O)[C@@H](NC(=O)OC)C5CC5)[nH]c4c3)cc2)[nH]1)C(C)C` [Example 602], under setting [1], the EC50 was less than 1 nM.
For the molecule `COC(=O)N[C@H](C(=O)N1CC2(CC2)C[C@H]1c1nc2ccc(C#Cc3ccc(-c4cnc([C@@H]5C[C@@H](C)CN5C(=O)[C@@H](NC(=O)OC)C5CCOCC5)[nH]4)cc3)cc2[nH]1)C(C)C` [Example 603], under setting [1], the EC50 was less than 1 nM.
The same measure, in the same setting: next, `COC(=O)N[C@H](C(=O)N1CC2(CC2)C[C@H]1c1nc2ccc(C#Cc3ccc(-c4cnc([C@@H]5CCCN5C(=O)[C@H](NC(=O)OC)[C@H](C)c5ccccc5)[nH]4)cc3)cc2[nH]1)C(C)C` [Example 604]: greater than 10 nM; `CC[C@@H](C)[C@H](NC(=O)OC)C(=O)N1CCC[C@H]1c1ncc(-c2ccc(C#Cc3ccc4nc([C@@H]5CC6(CC6)CN5C(=O)[C@@H](NC(=O)OC)C(C)C)[nH]c4c3)cc2)[nH]1` [Example 605]: less than 1 nM; `CC[C@@H](C)[C@H](NC(=O)OC)C(=O)N1CC2(CC2)C[C@H]1c1ncc(-c2ccc(C#Cc3ccc4nc([C@@H]5CC6(CC6)CN5C(=O)[C@@H](NC(=O)OC)C(C)C)[nH]c4c3)cc2)[nH]1` [Example 606]: less than 1 nM.
Still for that read-out and setting: next, `COC(=O)N[C@H](C(=O)N1CC2(CC2)C[C@H]1c1nc2ccc(C#Cc3ccc(-c4cnc([C@@H]5CCCN5C(=O)[C@@H](NC(=O)OC)C5CCCCC5)[nH]4)cc3)cc2[nH]1)C(C)C` [Example 607]: less than 1 nM; `COC(=O)N[C@H](C(=O)N1CCC[C@H]1c1nc(-c2ccc3cc(-c4ccc5[nH]c([C@@H]6CC7(CC7)CN6C(=O)[C@@H](NC(=O)OC)C(C)C)nc5c4)cc(F)c3c2)c[nH]1)C(C)C` [Example 608]: less than 1 nM.
On the same count and under the same terms, with `COC(=O)N[C@H](C(=O)N1CC2(CC2)C[C@H]1c1ncc(-c2ccc(C#Cc3ccc4nc([C@@H]5CC6(CC6)CN5C(=O)[C@@H](NC(=O)OC)c5ccccc5)[nH]c4c3)cc2)[nH]1)c1ccccc1` [Example 609] the figure was 1 to 10 nM; with `COC(=O)N[C@H](C(=O)N1CC2(CC2)C[C@H]1c1ncc(-c2ccc(C#Cc3ccc4nc([C@@H]5CC6(CC6)CN5C(=O)[C@H](NC(=O)OC)c5cccnc5)[nH]c4c3)cc2)[nH]1)C(C)C` [Example 610], less than 1 nM.
Take `COC(=O)N[C@@H](C(=O)N1CC2(CC2)C[C@H]1c1ncc(-c2ccc(C#Cc3ccc4nc([C@@H]5CC6(CC6)CN5C(=O)[C@H](NC(=O)OC)c5ccc(Cl)cc5)[nH]c4c3)cc2)[nH]1)c1ccc(Cl)cc1` [Example 611]: under setting [1], the EC50 was greater than 10 nM.
`COC(=O)N[C@H](C(=O)N1C[C@]2(CNC(=O)O2)C[C@H]1c1ncc(-c2ccc(C#Cc3ccc4nc([C@@H]5CC6(CC6)CN5C(=O)[C@@H](NC(=O)OC)C(C)C)[nH]c4c3)cc2)[nH]1)C(C)C` [Example 617]: where the note is “read-out: 1a EC50 Range, Table 12, range class”, the EC50 was in the range of 1 to 10 nM.
For the molecule `COC(=O)N[C@@H](CC(N)=O)C(=O)N1CCC[C@H]1c1ncc(-c2ccc(C#Cc3ccc4nc([C@@H]5CC6(CC6)CN5C(=O)[C@@H](NC(=O)OC)C(C)C)[nH]c4c3)cc2)[nH]1` [Example 619], under setting [2], the half-maximal effective concentration (EC50) turned out to be 0.699 nM.
Consider `COC(=O)N[C@@H](CCCCNC(N)=O)C(=O)N1CCC[C@H]1c1nc(-c2ccc(C#Cc3ccc4[nH]c([C@@H]5CC6(CC6)CN5C(=O)[C@@H](NC(=O)OC)C(C)C)nc4c3)cc2)c[nH]1` [Example 620], for which the concentration giving a half-maximal response (EC50) under setting [1] was less than 1 nM.
Still for that read-out and setting: with `COC(=O)N[C@H](C(=O)N1CC2(CC2)C[C@H]1c1nc2ccc(C#Cc3ccc(-c4cnc([C@@H]5CC6(CC6)CN5C(=O)[C@@H](N)C(C)C)[nH]4)cc3)cc2[nH]1)C(C)C` [Example 624] the figure was greater than 10 nM.
Take `COC(=O)N[C@H](C(=O)N1CC2(CC2)C[C@H]1c1nc(-c2ccc(C#Cc3ccc4[nH]c([C@@H]5C[C@]6(CCCO6)CN5C(=O)[C@@H](NC(=O)OC)C(C)C)nc4c3)cc2)c[nH]1)C(C)C` [Example 626]: the EC50 under setting [2] amounted to 1.34 nM.
For the molecule `COC(=O)N[C@H](C(=O)N1C[C@H](CF)C[C@H]1c1ncc(-c2ccc(C#Cc3ccc4nc([C@@H]5C[C@@]6(CCCO6)CN5C(=O)[C@@H](NC(=O)OC)C(C)C)[nH]c4c3)cc2)[nH]1)C(C)C` [Example 634], under setting [1], the 50% effective concentration (EC50) is less than 1 nM.
For `COC(=O)N[C@H](C(=O)N1CC2(CC2)C[C@H]1c1ncc(-c2ccc(C#Cc3ccc4nc([C@@H]5CC6(CC6)CN5C(=O)[C@H](NC(=O)OC)c5ccc(Cl)cc5)[nH]c4c3)cc2)[nH]1)C(C)C` [Example 650], the EC50 under setting [2] came to 0.079 nM.
`COC(=O)N[C@H](C(=O)N1CC2(CC2)C[C@H]1c1ncc(-c2ccc(C#Cc3ccc4nc([C@@H]5CC6(CC6)CN5C(=O)[C@H](NC(=O)OC)c5ccccc5Cl)[nH]c4c3)cc2)[nH]1)C(C)C` [Example 651]: under setting [1], the EC50 was less than 1 nM.
Regarding `COC(=O)N[C@H](C(=O)N1CC2(CC2)C[C@H]1c1ncc(-c2ccc(C#Cc3ccc4nc([C@@H]5CC6(CC6)CN5C(=O)[C@H](NC(=O)OC)c5ccccc5F)[nH]c4c3)cc2)[nH]1)C(C)C` [Example 652], the EC50 under setting [1] was less than 1 nM.
Consider `COC(=O)N[C@H](C(=O)N1CC2(CC2)C[C@H]1c1ncc(-c2ccc(C#Cc3ccc4nc([C@@H]5CC6(CC6)CN5C(=O)[C@H](NC(=O)OC)c5cccc(F)c5)[nH]c4c3)cc2)[nH]1)C(C)C` [Example 653], for which the EC50 under setting [1] was less than 1 nM.
As to `COC(=O)N[C@H](C(=O)N1CC2(CC2)C[C@H]1c1ncc(-c2ccc(C#Cc3ccc4nc([C@@H]5CC6(CC6)CN5C(=O)[C@H](NC(=O)OC)c5cccc(OC)c5)[nH]c4c3)cc2)[nH]1)C(C)C` [Example 654], under setting [2], the EC50 was 0.185 nM.
Same read-out and setting: next, `CC[C@H](NC(=O)OC)C(=O)N1CC2(CC2)C[C@H]1c1ncc(-c2ccc(C#Cc3ccc4nc([C@@H]5CC6(CC6)CN5C(=O)[C@H](CC)NC(=O)OC)[nH]c4c3)cc2)[nH]1` [Example 655]: 0.034 nM.
